The chains are these.
B1: plasmin: exogenous plasmin added to plasma, mimicking a fibrinolytic setting (protein, UniProt P00747 20-580; P00747 581-810, looked up)
Plasmin heavy chain A: EPLDDYVNTQGASLFSVTKKQLGAGSIEECAAKCEEDEEFTCRAFQYHSKEQQCVIMAENRKSSIIIRMRDVVLFEKKVYLSECKTGNGKNYRGTMSKTKNGITCQKWSSTSPHRPRFSPATHPSEGLEENYCRNPDNDPQGPWCYTTDPEKRYDYCDILECEEECMHCSGENYDGKISKTMSGLECQAWDSQSPHAHGYIPSKFPNKNLKKNYCRNPDRELRPWCFTTDPNKRWELCDIPRCTTPPPSSGPTYQCLKGTGENYRGNVAVTVSGHTCQHWSAQTPHTHNRTPENFPCKNLDENYCRNPDGKRAPWCHTTNSQVRWEYCKIPSCDSSPVSTEQLAPTAPPELTPVVQDCYHGDGQSYRGTSSTTTTGKKCQSWSSMTPHRHQKTPENYPNAGLTMNYCRNPDADKGPWCFTTDPSVRWEYCNLKKCSGTEASVVAPPPVVLLPDVETPSEEDCMFGNGKGYRGKRATTVTGTPCQDWAAQEPHRHSIFTPETNPRAGLEKNYCRNPDGDVGGPWCYTTNPRKLYDYCDVPQCAAPSFDCGKPQVEPKKCPGR
Plasmin light chain B: VVGGCVAHPHSWPWQVSLRTRFGMHFCGGTLISPEWVLTAAHCLEKSPRPSSYKVILGAHQEVNLEPHVQEIEVSRLFLEPTRKDIALLKLSSPAVITDKVIPACLPSPNYVVADRTECFITGWGETQGTFGAGLLKEAQLPVIENKVCNRYEFLNGRVQSTELCAGHLAGGTDSCQGDSGGPLVCFEKDKYILQGVTSWGLGCARPNKPGVYVRVSRFVTWIEGVMRNN
modifications: Plasmin
notes: exogenous plasmin added to plasma, mimicking a fibrinolytic setting

Square brackets hold non-standard residues; d marks the D form. * marks the point of attachment. CH2Cl = ClC*

One experiment relates to plasmin-activated coagulation in plasma. Put plainly: Plasmin-activated coagulation of plasma (plasmin + 6.25% Actin FS), time to coagulation. Also noted: species or system human. Conditions: 100 nM plasmin, 50% plasma, 6.25% Actin FS; control 1.00. The procedure:
In the clotting paradigm utilized in Example 3, plasma is mixed 1:1 with commercially formulated Actin FS. Thus, 50% (v/v) Actin FS is the maximum amount of activator that can be added while maintaining the amount of plasma constant at 50% of the incubation mixture. Since the clotting time in normal plasma is dependent on the amount of Actin FS present in the incubation mixture, these conditions would by definition lead to the shortest time to coagulation mediated by the intrinsic pathway in this paradigm. Lowering the amount of contact activator leads to a decrease in the amount of PK activated, thus reducing the amount of thrombin generated and slowing the time to coagulation (data not shown). Therefore, in order to determine whether addition of exogenous plasmin (mimicking a fibrinolytic setting) can shorten time to coagulation, the amount of Actin FS reagent added to the plasma (kept constant at 50% of the final incubation mixture) was lowered so as to attain 6.25% (final v/v).
This provides direct evidence that plasmin can have a thrombogenic effect when added to plasma in the presence of a small amount of contact activator.
The role for PK was established by evaluating deficiencies in PK, as well as by using two specific inhibitors of the enzymes. In order to determine whether blocking PK via a specific monoclonal antibody (MAb) would also be effective in inhibiting coagulation in either of the two paradigms described here, and thus provide additional validation for the invention, MAb 13G11, which has been previously characterized as being specific for PK (Veloso et al, (1987) Blood, 70, 1053-1062), was tested in each of the coagulation paradigms described in Examples 2 and 3. MAb 13G11 (obtained from GeneTex, San Antonio, Tex.) was added at a final concentration of 0.036 mg/ml in the 50% plasma—50% activator mix in each paradigm. This calculates to an approximately 2-fold molar excess over the amount of PK that would be present in the plasma—activator mixture, based on the literature reference of Veloso et al, (1987), Blood, 70, 1053-1062. Control samples were treated with 0.036 mg/ml of an isotype-matched control IgG1 (also obtained from GeneTex). When plasma was activated using 50% Actin FS (FIG. 5), MAb 13G11 prolonged time to coagulation by 100% (45% of the maximal effect obtained with PK-deficient plasma), and, when plasma was activated using 200 nM plasmin+6.25% Actin FS (FIG. 6), prolonged time to coagulation by 32% (40% of the maximal effect obtained with PK-deficient plasma).
Regarding B1, the relative coagulation time turned out to be 0.74.

Staying with this experiment, now noted: 200 nM plasmin, 50% plasma, 6.25% Actin FS; control 1.00.
For the molecule B1, the relative coagulation time was determined as 0.65.

Still in this experiment, the particulars now being: 200 nM plasmin, absence of any Actin FS.
B1: the “relative time to coagulation” value is 4.0.

The test system of the next experiment is LPS or bacterial induced sepsis in animals.
Assay: not given
As to conditions: in vivo; cited from earlier work.
As for “H-[dP]-Phe-Arg-CH2Cl [reference compound]”, the “vascular permeability in multiple organs and lesions” value is listed as “reduce”.

The target of a further experiment is T1, Human plasma kallikrein (PK) (Homo sapiens, UniProt P03952).
T1 construct: purchased Haemtech Technologies (Essex Junction, Vt.)
T1 sequence (P03952 391-638 limits assumed): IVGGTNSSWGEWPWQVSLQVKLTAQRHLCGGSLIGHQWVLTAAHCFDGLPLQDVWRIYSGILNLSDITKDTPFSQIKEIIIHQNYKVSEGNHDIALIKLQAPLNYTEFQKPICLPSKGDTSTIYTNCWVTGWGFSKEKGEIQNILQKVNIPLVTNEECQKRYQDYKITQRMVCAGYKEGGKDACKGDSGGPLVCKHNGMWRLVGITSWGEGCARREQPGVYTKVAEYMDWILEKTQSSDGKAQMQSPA
T1 sequence (P03952 20-390 partner limits assumed): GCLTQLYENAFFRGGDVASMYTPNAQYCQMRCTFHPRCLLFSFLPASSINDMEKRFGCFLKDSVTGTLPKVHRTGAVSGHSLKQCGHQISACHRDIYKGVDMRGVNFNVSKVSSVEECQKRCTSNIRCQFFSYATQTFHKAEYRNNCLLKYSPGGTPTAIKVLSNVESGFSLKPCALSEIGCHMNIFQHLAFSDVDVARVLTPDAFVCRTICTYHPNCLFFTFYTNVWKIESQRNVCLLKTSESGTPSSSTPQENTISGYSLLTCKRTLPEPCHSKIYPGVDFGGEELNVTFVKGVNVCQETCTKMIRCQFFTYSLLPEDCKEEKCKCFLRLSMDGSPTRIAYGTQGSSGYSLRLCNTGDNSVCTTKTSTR
Briefly: Inhibition of human plasma kallikrein amidolytic activity (H-D-Pro-Phe-Arg-pNA cleavage, A405). Format: biochemical. Conditions: PK Kiapp, apparent inhibition constant; 1 nM PK, pH 7.5. The procedure:
Human plasma kallikrein (PK) was obtained from Haemtech Technologies (Essex Junction, Vt.). The enzymatic activity of PK was assayed using the synthetic peptide substrate H-D-Pro-Phe-Arg-pNA (Bachem, Inc., Switzerland) with the cleavage of the substrate by the enzyme resulting in an increase in A405, measured using a Molecular Devices Vmax Kinetic Microplate Reader. The uninhibited (control) activity of PK was determined by adding 190 μl of PK solution (1 nM in 0.05 M HEPES, pH 7.5, 0.01% Triton X-100) to 10 μl of H-D-Pro-Phe-Arg-pNA (2 mM in DMSO) in individual microtiter plate wells, mixed immediately by shaking, and the rate of increase in A405 determined over 120-180 sec. In parallel, compounds of the present invention were mixed in separate wells with the synthetic substrate to attain final concentrations of between 0.01-10 μM in the final 200 μl reaction mixture, and the reaction initiated by the addition of 190 μl of the PK solution.
The highest concentration of either compound tested was 10 μM.
For `N=C(N)c1ccc(CNC(=O)c2cn(Cc3ccccc3)c3ccccc23)cc1` [ASP-381, 1-Benzyl-1H-indole-3-carboxylic acid 4-carbamimidoyl-benzylamide], the Ki was found to be 240 nM.

The same experiment, now with this note: Table 4 inhibition constants; read-out: Ki.
Regarding `N=C(N)c1ccc(CNC(=O)c2cn(S(=O)(=O)c3ccccc3)c3ccccc23)cc1` (single isomer, unassigned) [compound 2], the Ki stood at 30 nM. Turning to `N=C(N)c1ccc(CNC(=O)c2cnn(Cc3ccccc3)c2)cc1` (single isomer, unassigned) [compound 3], the Ki stood at 150 nM. Consider `N=C(N)c1ccc(CNC(=O)c2cn(Cc3ccccc3)c3ccccc23)cc1` [compound 1], for which the Ki was determined as 80 nM. Same read-out and setting: with `N=C(N)c1ccc(CNC(=O)c2cnn(-c3ccccc3)c2)cc1` [compound 4] the figure was 1000 nM.

The same experiment, now with this note: apparent inhibition constant; 1 nM PK, pH 7.5; read-out: PK Kiapp.
`Cc1nc(-c2ccccc2)sc1C(=O)NCc1ccc(C(=N)N)cc1` [ASP-373, 4-Methyl-2-phenyl-thiazole-5-carboxylic acid 4-carbamimidoyl-benzylamide]: the Ki is 8870 nM. On the same count and under the same terms, with `N=C(N)c1ccc(CNC(=O)c2cn(S(=O)(=O)c3ccccc3)c3ccccc23)cc1` [ASP-383, 1-Benzenesulfonyl-1H-indole-3-carboxylic acid 4-carbamimidoyl-benzylamide] the figure was 170 nM; with `N=C(N)c1ccc(CNC(=O)c2cnn(-c3ccccc3)c2)cc1` [ASP-445, 1-Phenyl-1H-pyrazole-4-carboxylic acid 4-carbamimidoyl-benzylamide], 1430 nM; with `Cc1oc(-c2ccccc2)cc1C(=O)NCc1ccc(C(=N)N)cc1` [ASP-466, 2-Methyl-5-phenyl-furan-3-carboxylic acid 4-carbamimidoyl-benzylamide], 1290 nM. Same read-out and setting: as for `N=C(N)c1ccc(CNC(=O)c2cc3ccccc3[nH]2)cc1` [ASP-484, 1H-Indole-2-carboxylic acid 4-carbamimidoyl-benzylamide], the figure is 2520 nM.

For `N=C(N)c1ccc(CNC(=O)c2cc3ccccc3o2)cc1` [ASP-485, Benzofuran-2-carboxylic acid 4-carbamimidoyl-benzylamide], the Ki came to 870 nM. Still for that read-out and setting: as for `N=C(N)c1ccc(CNC(=O)c2cc3ccccc3s2)cc1` [ASP-486, Benzo[b]thiophene-2-carboxylic acid 4-carbamimidoyl-benzylamide], the figure is 1570 nM; as for `N=C(N)c1ccc(CNC(=O)c2csc3ccccc23)cc1` [ASP-491, Benzo[b]thiophene-3-carboxylic acid 4-carbamimidoyl-benzylamide], 2110 nM; as for `N=C(N)c1ccc(CNC(=O)c2c[nH]c3ccccc23)cc1` [ASP-493, 1H-Indole-3-carboxylic acid 4-carbamimidoyl-benzylamide], 2450 nM. As to `N=C(N)c1ccc(CNC(=O)c2ccc(-c3ccccc3)s2)cc1` [ASP-523, 5-Phenyl-thiophene-2-carboxylic acid 4-carbamimidoyl-benzylamide], the Ki turned out to be 7660 nM.

In the case of `N=C(N)c1ccc(CNC(=O)c2ccc(-c3ccccn3)s2)cc1` [ASP-525, 5-Pyridin-2-yl-thiophene-2-carboxylic acid 4-carbamimidoyl-benzylamide], the Ki was 20600 nM. Still for that read-out and setting: as for `Cc1c(C(=O)NCc2ccc(C(=N)N)cc2)nnn1Cc1ccc(Br)cc1` [ASP-558, 1-(4-Bromo-benzyl)-5-methyl-1H-1,2,3-triazole-4-carboxylic acid 4-carbamimidoyl-benzylamide], the figure is 2620 nM; as for `N=C(N)c1ccc(CNC(=O)c2cn(Cc3ccc(F)cc3)nn2)cc1` [ASP-559, 1-(4-Fluoro-benzyl)-1H-1,2,3-triazole-4-carboxylic acid 4-carbamimidoyl-benzylamide], 8090 nM; as for `Cc1cc(C(=O)NCc2ccc(C(=N)N)cc2)c(C)n1-c1ccccc1` [ASP-576, 2,5-Dimethyl-1-phenyl-1H-pyrrole-3-carboxylic acid 4-carbamimidoyl-benzylamide], 40 nM. Turning to `Cc1nn(Cc2ccccc2)c(C)c1C(=O)NCc1ccc(C(=N)N)cc1` [ASP-577, 1-Benzyl-3,5-dimethyl-1H-pyrazole-4-carboxylic acid 4-carbamimidoyl-benzylamide], the Ki worked out at 1130 nM. On the same count and under the same terms, as for `Cc1nn(Cc2ccccc2Cl)c(C)c1C(=O)NCc1ccc(C(=N)N)cc1` [ASP-578, 1-(2-Chloro-benzyl)-3,5-dimethyl-1H-pyrazole-4-carboxylic acid 4-carbamimidoyl-benzylamide], the figure is 1640 nM; as for `Cc1nn(Cc2c(Cl)cccc2Cl)c(Cl)c1C(=O)NCc1ccc(C(=N)N)cc1` [ASP-579, 5-Chloro-1-(2,6-dichloro-benzyl)-3-methyl-1H-pyrazole-4-carboxylic acid 4-carbamimidoyl-benzylamide], 1190 nM. Still for that read-out and setting: with `Cc1cc(C(=O)NCc2ccc(C(=N)N)cc2)c(C)n1Cc1ccccc1` [ASP-580, 1-Benzyl-2,5-dimethyl-1H-pyrrole-3-carboxylic acid 4-carbamimidoyl-benzylamide] the figure was 30 nM; with `Cc1cc(C(=O)NCc2ccc(C(=N)N)cc2)c(C)n1CC(F)(F)F` [ASP-581, 2,5-Dimethyl-1-(2,2,2-trifluoro-ethyl)-1H-pyrrole-3-carboxylic acid 4-carbamimidoyl-benzylamide], 410 nM. Take `N=C(N)c1ccc(CNC(=O)c2cnn(Cc3ccccc3Cl)c2)cc1` [ASP-582, 1-(2-Chloro-benzyl)-1H-pyrazole-4-carboxylic acid 4-carbamimidoyl-benzylamide]: the Ki worked out at 470 nM. Same read-out and setting: with `Cc1nn(Cc2ccc(F)cc2)c(Cl)c1C(=O)NCc1ccc(C(=N)N)cc1` [ASP-583, 5-Chloro-1-(4-fluoro-benzyl)-3-methyl-1H-pyrazole-4-carboxylic acid 4-carbamimidoyl-benzylamide] the figure was 2380 nM.

(Values after patent US20080038276A1, “INHIBITORS OF PLASMA KALLIKREIN” (Activesite Pharmaceuticals, Inc., priority 2006, published 2008).)
